Source: PubChem BioAssay (NCI)
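Test compounds were applied to cells in 96-well plates for 48 hours at 5 doses. At the GI50, growth is halved. At the TGI there is no net growth.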

Key:
Assay in all cases: NCI tumour cell line growth inhibition, 48 h
786-0 renal = test system: 786-0 renal
LOX IMVI melanoma = test system: LOX IMVI melanoma
NCI/ADR-RES ovarian = test system: NCI/ADR-RES ovarian
COLO 205 colon = test system: COLO 205 colon
NCI-H522 lung = test system: NCI-H522 lung
RPMI-8226 leukemia = test system: RPMI-8226 leukemia
SW-620 colon = test system: SW-620 colon
OVCAR-4 ovarian = test system: OVCAR-4 ovarian
SN12C renal = test system: SN12C renal
MDA-MB-231 breast = test system: MDA-MB-231 breast
HCC-2998 colon = test system: HCC-2998 colon
MCF7 breast = test system: MCF7 breast
PC-3 prostate = test system: PC-3 prostate
CAKI-1 renal = test system: CAKI-1 renal
HOP-92 NSCLC = test system: HOP-92 NSCLC
OVCAR-8 ovarian = test system: OVCAR-8 ovarian
BT-549 breast = test system: BT-549 breast
DU-145 prostate = test system: DU-145 prostate
ACHN renal = test system: ACHN renal
SK-OV-3 ovarian = test system: SK-OV-3 ovarian
T-47D breast = test system: T-47D breast
MDA-MB-435 = test system: MDA-MB-435
NCI-H23 lung = test system: NCI-H23 lung
MALME-3M melanoma = test system: MALME-3M melanoma
UACC-257 melanoma = test system: UACC-257 melanoma
SF-268 CNS = test system: SF-268 CNS
U251 CNS = test system: U251 CNS
KM12 colon = test system: KM12 colon
SNB-19 CNS = test system: SNB-19 CNS
SK-MEL-2 melanoma = test system: SK-MEL-2 melanoma
EKVX NSCLC = test system: EKVX NSCLC
HCT-15 colon = test system: HCT-15 colon
SF-295 CNS = test system: SF-295 CNS
HOP-62 NSCLC = test system: HOP-62 NSCLC
A498 renal = test system: A498 renal
OVCAR-3 ovarian = test system: OVCAR-3 ovarian
RXF 393 renal = test system: RXF 393 renal
SF-539 CNS = test system: SF-539 CNS
NCI-H460 lung = test system: NCI-H460 lung
HCT-116 colon = test system: HCT-116 colon
TK-10 renal = test system: TK-10 renal
K-562 leukemia = test system: K-562 leukemia
UACC-62 melanoma = test system: UACC-62 melanoma
SNB-75 CNS = test system: SNB-75 CNS
UO-31 renal = test system: UO-31 renal
CCRF-CEM leukemia = test system: CCRF-CEM leukemia
SK-MEL-28 melanoma = test system: SK-MEL-28 melanoma
MOLT-4 leukemia = test system: MOLT-4 leukemia
HS 578T breast = test system: HS 578T breast
OVCAR-5 ovarian = test system: OVCAR-5 ovarian
IGROV1 ovarian = test system: IGROV1 ovarian
HL-60(TB) leukemia = test system: HL-60(TB) leukemia
M14 melanoma = test system: M14 melanoma
A549 NSCLC = test system: A549 NSCLC
NCI-H226 lung = test system: NCI-H226 lung
SK-MEL-5 melanoma = test system: SK-MEL-5 melanoma
SR leukemia = test system: SR leukemia
HT29 colon = test system: HT29 colon

CC(=O)N1N=C(c2ccc(Nc3nc(Nc4ccc(Cl)cc4)nc(Nc4ccc(Cl)cc4)n3)cc2)CC1c1ccc([N+](=O)[O-])cc1 (stereo unspecified)
GI50 (786-0 renal): 3.8 µM | TGI (786-0 renal): 26.3 µM | GI50 (LOX IMVI melanoma): 5.66 µM | TGI (LOX IMVI melanoma): > 47.1 µM | GI50 (NCI/ADR-RES ovarian): 5.41 µM | TGI (NCI/ADR-RES ovarian): > 70.4 µM | GI50 (COLO 205 colon): 1.82 µM | TGI (COLO 205 colon): 6.64 µM | GI50 (NCI-H522 lung): 6.39 µM | TGI (NCI-H522 lung): > 100 µM | GI50 (RPMI-8226 leukemia): 3.61 µM | TGI (RPMI-8226 leukemia): 42.4 µM | GI50 (SW-620 colon): 8.77 µM | TGI (SW-620 colon): > 100 µM | GI50 (OVCAR-4 ovarian): 3.85 µM | TGI (OVCAR-4 ovarian): > 100 µM | GI50 (SN12C renal): 13.4 µM | TGI (SN12C renal): > 100 µM | GI50 (MDA-MB-231 breast): 10.2 µM | TGI (MDA-MB-231 breast): > 92 µM | GI50 (HCC-2998 colon): 19.3 µM | TGI (HCC-2998 colon): > 80.1 µM | GI50 (MCF7 breast): 1.71 µM | TGI (MCF7 breast): 10.4 µM | GI50 (PC-3 prostate): 2.92 µM | TGI (PC-3 prostate): > 69.4 µM | GI50 (CAKI-1 renal): 6.1 µM | TGI (CAKI-1 renal): 32.5 µM | GI50 (HOP-92 NSCLC): 5.18 µM | TGI (HOP-92 NSCLC): 54.7 µM | GI50 (OVCAR-8 ovarian): 8.54 µM | TGI (OVCAR-8 ovarian): > 100 µM | GI50 (BT-549 breast): 10.6 µM | TGI (BT-549 breast): 88.9 µM | GI50 (DU-145 prostate): 5.56 µM | TGI (DU-145 prostate): > 54.9 µM | GI50 (ACHN renal): 5.49 µM | TGI (ACHN renal): > 100 µM | GI50 (SK-OV-3 ovarian): 4.3 µM | TGI (SK-OV-3 ovarian): 34.2 µM | GI50 (T-47D breast): 1.74 µM | TGI (T-47D breast): 7.2 µM | GI50 (MDA-MB-435): 4.59 µM | TGI (MDA-MB-435): 36 µM | GI50 (NCI-H23 lung): 11.1 µM | TGI (NCI-H23 lung): > 100 µM | GI50 (MALME-3M melanoma): 14.7 µM | TGI (MALME-3M melanoma): 71.7 µM | GI50 (UACC-257 melanoma): 11.4 µM | TGI (UACC-257 melanoma): > 72.4 µM | GI50 (SF-268 CNS): 7.14 µM | TGI (SF-268 CNS): > 100 µM | GI50 (U251 CNS): 7.42 µM | TGI (U251 CNS): > 100 µM | GI50 (KM12 colon): 5.72 µM | TGI (KM12 colon): > 62.4 µM | GI50 (SNB-19 CNS): 3.8 µM | TGI (SNB-19 CNS): 38.7 µM | GI50 (SK-MEL-2 melanoma): 5.38 µM | TGI (SK-MEL-2 melanoma): > 45.6 µM | GI50 (EKVX NSCLC): 4.22 µM | TGI (EKVX NSCLC): > 40.1 µM | GI50 (HCT-15 colon): 4.11 µM | TGI (HCT-15 colon): > 94.3 µM | GI50 (SF-295 CNS): 1.87 µM | TGI (SF-295 CNS): 13.6 µM | GI50 (HOP-62 NSCLC): 13.5 µM | TGI (HOP-62 NSCLC): 47.4 µM | GI50 (A498 renal): 1.97 µM | TGI (A498 renal): 19.6 µM | GI50 (OVCAR-3 ovarian): 5.93 µM | TGI (OVCAR-3 ovarian): 25.6 µM | GI50 (RXF 393 renal): 2.29 µM | TGI (RXF 393 renal): 9.2 µM | GI50 (SF-539 CNS): 6 µM | TGI (SF-539 CNS): 25.5 µM | GI50 (NCI-H460 lung): 2.75 µM | TGI (NCI-H460 lung): 12.5 µM | GI50 (HCT-116 colon): 3.24 µM | TGI (HCT-116 colon): 34.8 µM | GI50 (TK-10 renal): 12.2 µM | TGI (TK-10 renal): > 75.3 µM | GI50 (K-562 leukemia): 2.65 µM | TGI (K-562 leukemia): 28.7 µM | GI50 (UACC-62 melanoma): 11.9 µM | TGI (UACC-62 melanoma): 34.9 µM | GI50 (SNB-75 CNS): 3.71 µM | TGI (SNB-75 CNS): > 54.6 µM | GI50 (UO-31 renal): 4.29 µM | TGI (UO-31 renal): > 100 µM | GI50 (CCRF-CEM leukemia): 2.92 µM | TGI (CCRF-CEM leukemia): > 32.2 µM | GI50 (SK-MEL-28 melanoma): 8.79 µM | TGI (SK-MEL-28 melanoma): 74.4 µM | GI50 (MOLT-4 leukemia): 1.92 µM | TGI (MOLT-4 leukemia): 8.35 µM | GI50 (HS 578T breast): 7.7 µM | TGI (HS 578T breast): 97.7 µM | GI50 (OVCAR-5 ovarian): 19.4 µM | TGI (OVCAR-5 ovarian): > 100 µM | GI50 (IGROV1 ovarian): 6.51 µM | TGI (IGROV1 ovarian): > 65.6 µM | GI50 (HL-60(TB) leukemia): 6.15 µM | TGI (HL-60(TB) leukemia): 24.4 µM | GI50 (M14 melanoma): 6.8 µM | TGI (M14 melanoma): 43.4 µM | GI50 (A549 NSCLC): 5.57 µM | TGI (A549 NSCLC): > 86.5 µM | GI50 (NCI-H226 lung): 12.9 µM | TGI (NCI-H226 lung): > 82.7 µM | GI50 (SK-MEL-5 melanoma): 3.22 µM | TGI (SK-MEL-5 melanoma): 15.8 µM | GI50 (SR leukemia): 2.66 µM | TGI (SR leukemia): 20.5 µM | GI50 (HT29 colon): 4.74 µM | TGI (HT29 colon): > 95 µM
